Source: article PMC5655031, “A Linear 19-Mer Plant Defensin-Derived Peptide Acts Synergistically with Caspofungin against Candida albicans Biofilms” (Frontiers in Microbiology, 2017)
Read-outs that look alike come from different tables or passages of the source. Numbered stars: 1 amine (or outer) side, 2 acyl side, 3 side chain; on linkers, the order of the positions; unused ones are H or OH. Bridge positions count the residues as written; N and C are the ends. Square brackets hold non-standard residues; d marks the D form. Ends that are not written are not given here. Peptide text beside a SMILES is read from it. * marks the point of attachment. hTyr(3S-OH,4S-OH,3'-OSO3H) = N[C@H](C(=O)O)[C@H](O)[C@@H](O)c1ccc(O)c(OS(=O)(=O)O)c1; pTerphenylCO(4''-OnC5H11) = CCCCCOc1ccc(-c2ccc(-c3ccc(C(=O)*)cc3)cc2)cc1; Orn(4R-OH,5R-OH) = O=C([C@H](C[C@@H](O)[C@@H](O)N[*:3])N[*:1])[*:2]; hTyr(3S-OH,4S-OH) = N[C@H](C(=O)O)[C@H](O)[C@@H](O)c1ccc(O)cc1; Pro(3S-OH,4S-Me) = C[C@H]1CN[C@H](C(=O)O)[C@H]1O; X1 = CCCCCOc1ccc(-c2cc(-c3ccc(C(=O)*)cc3)no2)cc1; Gln(3R-OH) = NC(=O)C[C@@H](O)[C@H](N)C(=O)O; Hyp = O=C(O)[C@@H]1C[C@@H](O)CN1; Abu = CC[C@H](N)C(=O)O

Experiments:
[1] = test system: Candida albicans biofilms; experiment: microbe, parasite or virus in culture
[2] = test system: Candida glabrata biofilms; experiment: In vitro biofilm inhibition assay in microtiter plates (XTT quantification); type: cell-based; conditions: Nakaseomyces glabratus, caspofungin alone, n = 3, read-out: BIC50 (CASPO) ± SEM
[3] = test system: C. albicans biofilms on catheter pieces; experiment: In vivo biofilm inhibition assay, subcutaneous rat catheter model; conditions: intravenously (IV) administered, once daily for 7 days; CFU
Experimental: All animal experiments were in accordance with the KU Leuven animal care guidelines and approved by the Ethical Committee of the KU Leuven (P069/2016). In vivo C. albicans biofilms were formed inside catheter pieces in immunosuppressed female Sprague–Dawley rats (200 g) as described previously (Ricicova et al., [2010]). Briefly, serum pre-incubated catheters were infected with C. albicans cells (5 × 10^4 cells/mL) prepared in RPMI medium during the adhesion period (90 min at 37°C). After a washing step, 9 catheter pieces were implanted into the back area of one rat. Inhibition of in vivo C. albicans biofilm formation was initiated immediately after the implant. […] Catheters were explanted from euthanized animals and the number of cells per individual biofilm was determined by CFU (Ricicova et al., [2010]). In vivo experiments were performed once (in total three animals/group).

[4] = test system: Candida albicans biofilms; experiment: In vitro biofilm inhibition assay in microtiter plates (XTT quantification); type: cell-based; conditions: caspofungin alone, n = 3, read-out: BIC50 (CASPO) ± SEM
[5] = test system: Candida dubliniensis biofilms; experiment: as above; type: cell-based; conditions: caspofungin alone, n = 3, read-out: BIC50 (CASPO) ± SEM
[6] = test system: planktonic Candida albicans fks1 mutant cells; experiment: Flow cytometry: HsLin06_18-FITC uptake and membrane permeabilization (PI), fks1 mutant; type: cell-based; conditions: caspofungin (0.5 μM) alone; 40 minutes; n = 3
Experimental: (§1) Membrane permeabilization and HsLin06_18 internalization were determined via flow cytometric analysis on planktonic C. albicans SC5314 WT cells. Exponentially growing cells were exposed to caspofungin ([…]), HsLin06_18-FITC (4.6 μM) or its combination (as described in the material and methods section “fungicidal activity assay”), and to propidium iodide (PI) (2 μg/mL), after which they were subjected to flow cytometry on a BD Influx™ cell sorter. Per treatment, 10,000 cells were monitored for fluorescence at 530/40 nm (FL2_λex = 488 nm) and 610/20 nm (FL11_ λex = 561 nm) for the detection of HsLin06_18-FITC internalization (FITC+) and membrane permeabilization (PI+), respectively. Data from cells treated with 4.6 μM HsLin06_18-FITC were used as background signal.
[picture] Supplementary Figure S3: HsLin06_18-FITC uptake and membrane permeabilization in planktonic Candida albicans WT and fks1 mutant cells, determined via flow cytometry. Cells were treated for 40 minutes with 0.5 µM caspofungin and/or […] HsLin06_18-FITC (HsL-F) and 2 µg/mL propidium iodide (PI). […]

Candida krusei biofilms = experiment: In vitro biofilm inhibition assay in microtiter plates (XTT quantification); type: cell-based; conditions: Pichia kudriavzevii, caspofungin alone, n = 3, read-out: BIC50 (CASPO) ± SEM
[7] = test system: C. albicans biofilms on serum pre-incubated polyurethane catheters; experiment: In vitro biofilm inhibition assay on catheters; type: cell-based, Candida albicans; conditions: 24 h treatment; CFU
Experimental: Polyurethane catheters, overnight incubated in bovine serum, were infected with C. albicans or C. glabrata cells (5 × 10^4 cells/mL) in RPMI medium (Kucharikova et al., [2015]). […] All experiments were performed in quadruplicate with at least three biological repeats.

[8] = test system: planktonic C. albicans SC5314 WT cells; experiment: Flow cytometry: HsLin06_18-FITC uptake and membrane permeabilization (PI); type: cell-based, Candida albicans; conditions: 0.01 μM caspofungin alone; vs t0
Experimental: as §1

[9] = test system: C. albicans caspofungin-resistant mutant M177 (fks1 mutant) biofilms; experiment: microbe, parasite or virus in culture; conditions: Candida albicans, read-out: BIC50 (CASPO) ± SEM
[10] = test system: C. albicans SC5314 WT planktonic cells; experiment: Fungicidal activity assay (plating, CFU) on planktonic cells; type: cell-based, Candida albicans; conditions: caspofungin alone, concentrations up to 50 μM, one representative experiment out of 2
Experimental: […] Both at the start and at all measuring points, surviving yeast cells was determined via plating assays. In a plating assay, 10-fold dilution series of yeast cells in PBS were prepared, after which 100 μL was plated on YPD plates. After 1 day of incubation at 37°C, the number of colony forming units (CFU) was counted and cell death was calculated relative to time zero (t0). MFC50 values, indicating the minimum fungicidal concentration resulting in 50% cell death, were determined. In parallel with the plating assay, confocal microscopic or flow cytometric analysis were performed on the samples.

[11] = HsLin06_18 cytotoxicity assay (MTT); type: cell-based; conditions: human, 24 h treatment, relative to 1% DMSO control, read-out: EC50 (half maximal effective concentration), cytotoxicity
Experimental: Drug cytotoxicity testing was performed as described previously (Vriens et al., [2015b]). Briefly, human hepatoma (HepG2) cells were treated for 24 h with caspofungin, HsLin06_18, its combination or control treatment (1% DMSO). Cell viability was determined by MTT staining (Roche Diagnostics, Germany) and expressed relative to the control treatment. All experiments were performed in quadruplicate with at least three biological repeats.

[12] = test system: C. albicans caspofungin-resistant mutant M177 (fks1 mutant) biofilms; conditions: fks1 mut
[13] = test system: Candida albicans biofilms; conditions: Caspofungin + HsLin; microtiter plate; means for n ≥ 2
candidiasis = conditions: administered systemically at 7 or 14 mg/kg/day; ref Tavares et al., 2008; cited from earlier work
[14] = read-out: BIC50 (echinocandin) ± SEM

## CCCCCOc1ccc(-c2ccc(-c3ccc(C(=O)N[C@H]4C[C@@H](O)[C@@H](O)NC(=O)[C@@H]5[C@@H](O)[C@@H](C)CN5C(=O)[C@H]([C@@H](C)O)NC(=O)[C@H]([C@H](O)[C@@H](O)c5ccc(O)cc5)NC(=O)[C@@H]5C[C@@H](O)CN5C(=O)[C@H]([C@@H](C)O)NC4=O)cc3)cc2)cc1 [Anidulafungin] ({pTerphenylCO(4''-OnC5H11)}-[Orn(4R-OH,5R-OH)]T[Hyp][hTyr(3S-OH,4S-OH)]T[Pro(3S-OH,4S-Me)]; lactam 1-C)
[1]; [14]
  IC50: 930 ± 120 nM

## CC[C@H](C)C[C@H](C)CCCCCCCCC(=O)N[C@H]1C[C@@H](O)[C@@H](NCCN)NC(=O)[C@@H]2[C@@H](O)CCN2C(=O)[C@H]([C@H](O)CCN)NC(=O)[C@H]([C@H](O)[C@@H](O)c2ccc(O)cc2)NC(=O)[C@@H]2C[C@@H](O)CN2C(=O)[C@H]([C@@H](C)O)NC1=O [Caspofungin]
[2]
  IC50: 1000 ± 115 nM
[3]
  sub-lethal dose in the subcutaneous rat catheter model: 0.25 mg/kg/day
[4]
  IC50: 700 ± 92 nM
[5]
  IC50: 920 ± 17 nM
[6]
  cells with permeabilized membranes: < 0.2%
Candida krusei biofilms
  IC50: 1090 ± 12 nM
[7]
  sub-lethal dose in the in vitro catheter setup: 0.4 µM
[8]
  population of cells with compromised membranes: not significantly increased after 40 min
[1]; read-out: BIC50 (CASPO) ± SEM
  IC50: 830 ± 96 nM
[1]; [14]
  IC50: 960 ± 40 nM
[9]
  IC50: 7400 ± 1360 nM
[10]
  cell death: 30%

## CC[C@H](NC(=O)[C@H](C)NC(=O)CNC(=O)CNC(=O)[C@H](Cc1ccc(O)cc1)NC(=O)[C@H](C)NC(=O)[C@@H](N)Cc1ccccc1)C(=O)N[C@@H](Cc1c[nH]cn1)C(=O)N[C@@H](Cc1ccc(O)cc1)C(=O)N[C@@H](CCC(N)=O)C(=O)N[C@@H](Cc1ccccc1)C(=O)N1CCC[C@H]1C(=O)N[C@@H](CO)C(=O)N[C@H](C(=O)N[C@@H](CCCCN)C(=O)N[C@@H](CC)C(=O)N[C@@H](Cc1ccccc1)C(=O)N[C@@H](CC)C(=O)N[C@@H](CCCCN)C(=O)O)C(C)C [HsLin06_18] (H-FAYGGA[Abu]HYQFPSVK[Abu]F[Abu]K-OH)
[11]
  EC50 at 24 h: > 50000 nM
[12]; caspofungin + 2.5 µM HsLin06_18
  FICI: < 0.5
[12]; caspofungin + 5 µM HsLin06_18
  FICI: < 0.5

## CCCCCOc1ccc(-c2cc(-c3ccc(C(=O)N[C@H]4C[C@@H](O)[C@@H](O)NC(=O)[C@@H]5[C@@H](O)[C@@H](C)CN5C(=O)[C@H]([C@H](O)CC(N)=O)NC(=O)[C@H]([C@H](O)[C@@H](O)c5ccc(O)c(OS(=O)(=O)O)c5)NC(=O)[C@@H]5C[C@@H](O)CN5C(=O)[C@H]([C@@H](C)O)NC4=O)cc3)no2)cc1 [Micafungin] (X1-[Orn(4R-OH,5R-OH)]T[Hyp][hTyr(3S-OH,4S-OH,3'-OSO3H)][Gln(3R-OH)][Pro(3S-OH,4S-Me)]; lactam 1-C)
[1]; [14]
  IC50: 400 ± 88 nM

## FAYGGACHYQFPSVKCFXK (disulfide) [HsLin06_18_22]
[13]
  Fold change (reduction of the BIC50 of caspofungin by co-incubation with HsLin06_18 or HsLin06_18-variants): 1.77

## FAYGGACHYQFPSVKXFCK (disulfide) [HsLin06_18_20]
[13]
  Fold change (reduction of the BIC50 of caspofungin by co-incubation with HsLin06_18 or HsLin06_18-variants): 1.97

## RsAFP2: plant defensin (QKLCQRPSGTWSGVCGNNNACKNQCIRLEKARHGSCNYVFPAHKCICYFPC; ends and bridges not checked; cysteine pairing not given here; UniProt P30230 30-80, looked up)
candidiasis
  in vivo efficacy against candidiasis: prophylactically effective
